{
  "source": "patent US7081538B1",
  "about": "“Substituted isoxazolines and their use as antibacterial agents” (priority 1999, dated 2006)",
  "format_in_all_cases": "cell-based",
  "key": {"[1]": {"tested_on": "Coagulase Negative Staphylococci MR (methicillin resistant)", "test": "MIC by agar-dilution, Coagulase Negative Staphylococci MR", "settings": "inoculum 10^4 CFU/spot, 37° C., 24 hours", "method": "(§1) The following results were obtained on a standard in-vitro test system. The activity is described in terms of the minimum inhibitory concentration (MIC) determined by the agar-dilution technique with an inoculum size of 10^4 CFU/spot. Typically, compounds are active in the range 0.01 to 256 μg/ml.\n(§2) Staphylococci were tested on agar, using an inoculum of 10^4 CFU/spot and an incubation temperature of 37° C. for 24 hours—standard test conditions for the expression of methicillin resistance."}, "[2]": {"tested_on": "Streptococcus pyogenes C203", "test": "MIC by agar-dilution, Streptococcus pyogenes C203", "settings": "agar with 5% defibrinated horse blood, 10^4 CFU/spot, 37° C., 5% carbon dioxide, 48 hours", "method": "as §1\n(§3) Streptococci and enterococci were tested on agar supplemented with 5% defibrinated horse blood, an inoculum of 10^4 CFU/spot and an incubation temperature of 37° C. in an atmosphere of 5% carbon dioxide for 48 hours—blood is required for the growth of some of the test organisms."}, "Enterococcus faecalis": {"tested_on": "Enterococcus faecalis", "test": "MIC by agar-dilution, Enterococcus faecalis", "settings": "agar with 5% defibrinated horse blood, 10^4 CFU/spot, 37° C., 5% carbon dioxide, 48 hours", "method": "as §1, §3"}, "[3]": {"tested_on": "Staphylococcus aureus Novb. Res (Novobiocin resistant)", "test": "MIC by agar-dilution, Staphylococcus aureus Novb. Res", "settings": "inoculum 10^4 CFU/spot, 37° C., 24 hours", "method": "as §1, §2"}, "[4]": {"tested_on": "Coagulase Negative Staphylococci MS (methicillin sensitive)", "test": "MIC by agar-dilution, Coagulase Negative Staphylococci MS", "settings": "inoculum 10^4 CFU/spot, 37° C., 24 hours", "method": "as §1, §2"}, "[5]": {"tested_on": "Staphylococcus aureus Oxford", "test": "MIC by agar-dilution, Staphylococcus aureus Oxford", "settings": "inoculum 10^4 CFU/spot, 37° C., 24 hours", "method": "as §1, §2"}, "[6]": {"tested_on": "Staphylococcus aureus MRQR (methicillin resistant quinolone resistant)", "test": "MIC by agar-dilution, Staphylococcus aureus MRQR", "settings": "inoculum 10^4 CFU/spot, 37° C., 24 hours", "method": "as §1, §2"}, "Bacillus subtilis": {"tested_on": "Bacillus subtilis", "test": "MIC by agar-dilution, Bacillus subtilis", "settings": "inoculum 10^4 CFU/spot", "method": "as §1"}},
  "data": [
    {"smiles": "O=C(CO)N1CC=C(c2ccc(C3=NOC(CNc4ccon4)C3)cc2)CC1", "note": "(racemic) [Example 1, (5RS)-3-(4-(1-Hydroxyacetyl-1,2,5,6-tetrahydropyrid-4-yl)phenyl)-5-(3-isoxazolylaminomethyl)-4,5-dihydro-isoxazole]", "values": [
      {"measurement": "MIC", "setting": "[1]", "value": 2, "unit": "µg/mL"},
      {"measurement": "MIC", "setting": "[2]", "value": 8, "unit": "µg/mL"},
      {"measurement": "MIC", "setting": "Enterococcus faecalis", "value": 8, "unit": "µg/mL"},
      {"measurement": "MIC", "setting": "[3]", "value": 4, "unit": "µg/mL"},
      {"measurement": "MIC", "setting": "[4]", "value": 1, "unit": "µg/mL"},
      {"measurement": "MIC", "setting": "[5]", "value": 2, "unit": "µg/mL"},
      {"measurement": "MIC", "setting": "[6]", "value": 4, "unit": "µg/mL"},
      {"measurement": "MIC", "setting": "Bacillus subtilis", "value": 1, "unit": "µg/mL"}
    ]}
  ]
}
